Data as given in ChEMBL document CHEMBL1149007, “The Ichthyotoxic Principles of Zanthoxylum clava-herculis” (J Nat Prod, 1986).

Tested on: Pimephales promelas
Assay: Ichthyotoxicity in Pimephales promelas assessed as mortality measured every 30 mins for 2 hrs
Type: organism-based

SMILES: CC(=O)N1CCc2cc3c(c4c2[C@H]1Cc1ccccc1-4)OCO3
- IC50: 300 µM
